Test results reported in ChEMBL document CHEMBL6083251, “"Pseudosubstrate Envelope"/Free Energy Perturbation-Guided Design and Mechanistic Investigations of Benzothiazole HIV Capsid Modulators with High Ligand Efficiency” (J Med Chem, 2024).
pEC50, pKd: −log10 of the molar value. Calls of active or inactive are those of the source. The rule behind the calls is not given here.

Tests used:
[1] = test system: Human immunodeficiency virus 1; assay: Antiviral activity against pseudotyped HIV-1 expressing luciferase-reporter transfected in HEK293T cells assessed as viral inhibition at late stage incubated for 48 hrs by Single-round infection assay; format: functional, organism-based
[2] = test system: Human immunodeficiency virus 1; assay: Induction of HIV-1 CA-NC assessed as capsid assembly at 10 uM by FRET analysis; conditions: filed as modulator
[3] = MRT(0 to t) in male Sprague-Dawley rat at 10 mg/kg, sc measured upto 24 hrs by LC-MS/MS analysis; format: ADME, organism-based; conditions: in vivo
[4] = Selectivity index, ratio of CC50 for human MT4 cells to EC50 for HIV-2 ROD infected in human MT-4 cells; format: toxicity, cell-based; conditions: read-out: Selectivity Index
[5] = Subacute toxicity in male Kunming mouse assessed as hunched posture at 50 mg/kg, po administered every other day for 14 days; format: organism-based; conditions: in vivo, 336 h, time 14 day
[6] = Subacute toxicity in male Kunming mouse assessed as change in body weight at 50 mg/kg, po administered every other day for 14 days; format: organism-based; conditions: in vivo, 336 h, time 14 day
[7] = Acute toxicity in male Kunming mouse assessed as death at 1000 mg/kg, IG administered via gavage; format: organism-based; conditions: in vivo, po
[8] = biological target: Structural capsid protein (Human immunodeficiency virus 1) (UniProt Q76129); assay: Binding affinity to HIV-1 hexameric capsid protein assessed as reduction in CPSF6 binding to capsid protein by competition assay based SPR analysis; conditions: filed as modulator
Chain of Structural capsid protein (Human immunodeficiency virus 1) (Q76129 as listed by the source): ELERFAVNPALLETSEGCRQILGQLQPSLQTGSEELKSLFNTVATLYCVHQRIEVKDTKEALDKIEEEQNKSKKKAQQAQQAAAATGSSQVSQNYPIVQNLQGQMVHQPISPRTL

[9] = Subacute toxicity in male Kunming mouse assessed as convulsion at 50 mg/kg, po administered every other day for 14 days; format: organism-based; conditions: in vivo, 336 h, time 14 day
[10] = Half life in male Sprague-Dawley rat at 2 mg/kg, iv measured upto 24 hrs by LC-MS/MS analysis; format: ADME, organism-based; conditions: in vivo
[11] = AUC(0 to t) in male Sprague-Dawley rat at 2 mg/kg, iv measured upto 24 hrs by LC-MS/MS analysis; format: ADME, organism-based; conditions: in vivo
[12] = Clearance in male Sprague-Dawley rat at 2 mg/kg, iv measured upto 24 hrs by LC-MS/MS analysis; format: ADME, organism-based; conditions: in vivo
[13] = MRT(0 to infinity) in male Sprague-Dawley at 10 mg/kg, sc measured upto 24 hrs by LC-MS/MS analysis; format: ADME, organism-based; conditions: rat, in vivo
[14] = Subacute toxicity in male Kunming mouse assessed as animal death at 50 mg/kg, po administered every other day for 14 days; format: organism-based; conditions: in vivo, 336 h, time 14 day
[15] = Subacute toxicity in male Kunming mouse assessed as pathological damage in lungs at 50 mg/kg, po administered every other day for 14 days by H and E staining based analysis; format: organism-based; conditions: in vivo, 336 h, time 14 day
[16] = Metabolic stability in human liver microsomes assessed as half life at 1 uM incubated for 60 mins by LC-MS/MS analysis; format: ADME, Microsome
[17] = AUC(0 to infinity) in male Sprague-Dawley rat at 2 mg/kg, iv measured upto 24 hrs by LC-MS/MS analysis; format: ADME, organism-based; conditions: in vivo
[18] = Tmax in male Sprague-Dawley rat at 10 mg/kg, sc measured upto 24 hrs by LC-MS/MS analysis; format: ADME, organism-based; conditions: in vivo
[19] = Acute toxicity in male Kunming mouse assessed as body weight gain at 1000 mg/kg, IG administered via gavage; format: organism-based; conditions: in vivo, po
[20] = MRT(0 to t) in male Sprague-Dawley rat at 2 mg/kg, iv measured upto 24 hrs by LC-MS/MS analysis; format: ADME, organism-based; conditions: in vivo
[21] = Subacute toxicity in male Kunming mouse assessed as piloerection at 50 mg/kg, po administered every other day for 14 days; format: organism-based; conditions: in vivo, 336 h, time 14 day
[22] = C0 in male Sprague-Dawley rat at 2 mg/kg, iv measured upto 24 hrs by LC-MS/MS analysis; format: ADME, organism-based; conditions: in vivo
[23] = Acute toxicity in female Kunming mouse assessed as convulsion at 1000 mg/kg, IG administered via gavage; format: organism-based; conditions: in vivo, po
[24] = Tmax in male Sprague-Dawley rat at 2 mg/kg, iv measured upto 24 hrs by LC-MS/MS analysis; format: ADME, organism-based; conditions: in vivo
[25] = […] bioavailability in male Sprague-Dawley rat at 10 mg/kg measured upto 24 hrs by LC-MS/MS analysis; format: ADME, organism-based; conditions: in vivo
[26] = test system: Human immunodeficiency virus 1; assay: Anti-HIV activity against wild type HIV-1 IIIB infected in human MT4 cells assessed as protection against virus-induced cytopathic effect incubated for 5 days by spectrophotometric based MTT assay; format: functional, organism-based; conditions: Human immunodeficiency virus 1, IIIB, MT4, 120 h
[27] = Cmax in male Sprague-Dawley rat at 10 mg/kg, sc measured upto 24 hrs by LC-MS/MS analysis; format: ADME, organism-based; conditions: in vivo
[28] = test system: Human immunodeficiency virus 1; assay: Antiviral activity against pseudotyped HIV-1 expressing luciferase-reporter transfected in HEK293T cells assessed as viral inhibition at early stage incubated for 48 hrs by Single-round infection assay; format: functional, organism-based
[29] = Cmax in male Sprague-Dawley rat at 2 mg/kg, iv measured upto 24 hrs by LC-MS/MS analysis; format: ADME, organism-based; conditions: in vivo
[30] = Acute toxicity in male Kunming mouse assessed as sedation at 1000 mg/kg, IG administered via gavage; format: organism-based; conditions: in vivo, po
[31] = Subacute toxicity in male Kunming mouse assessed as scattered lymphocyte infiltration in heart at 50 mg/kg, po administered every other day for 14 days by H and E staining based analysis; format: organism-based; conditions: in vivo, 336 h, time 14 day
[32] = AUC(0 to t) in male Sprague-Dawley rat at 10 mg/kg, sc measured upto 24 hrs by LC-MS/MS analysis; format: ADME, organism-based; conditions: in vivo
[33] = Acute toxicity in female Kunming mouse assessed as sedation at 1000 mg/kg, IG administered via gavage; format: organism-based; conditions: in vivo, po
[34] = AUC(0 to infinity) in male Sprague-Dawley rat at 10 mg/kg, sc measured upto 24 hrs by LC-MS/MS analysis; format: ADME, organism-based; conditions: in vivo
[35] = MRT(0 to infinity) in male Sprague-Dawley rat at 2 mg/kg, iv measured upto 24 hrs by LC-MS/MS analysis; format: ADME, organism-based; conditions: in vivo
[36] = Subacute toxicity in male Kunming mouse assessed as pathological damage in spleen at 50 mg/kg, po administered every other day for 14 days by H and E staining based analysis; format: organism-based; conditions: in vivo, 336 h, time 14 day
[37] = Acute toxicity in female Kunming mouse assessed as body weight gain at 1000 mg/kg, IG administered via gavage; format: organism-based; conditions: in vivo, po
[38] = Half life in male Sprague-Dawley rat at 10 mg/kg, sc measured upto 24 hrs by LC-MS/MS analysis; format: ADME, organism-based; conditions: in vivo
[39] = Acute toxicity in female Kunming mouse assessed as anorexia at 1000 mg/kg, IG administered via gavage; format: organism-based; conditions: in vivo, po
[40] = biological target: Structural capsid protein (Human immunodeficiency virus 1, UniProt Q76129); assay: Binding affinity to monomeric HIV-1 NL4.3 capsid protein assessed as dissociation constant by SPR assay
Chain of Structural capsid protein (Q76129 whole entry): as the sequence (Q76129 as listed by the source) above

[41] = Apparent volume of distribution in male Sprague-Dawley rat at 2 mg/kg, iv measured upto 24 hrs by LC-MS/MS analysis; format: ADME, organism-based; conditions: in vivo, read-out: Vz
[42] = Subacute toxicity in male Kunming mouse assessed as tremor at 50 mg/kg, po administered every other day for 14 days; format: organism-based; conditions: in vivo, 336 h, time 14 day
[43] = Subacute toxicity in male Kunming mouse assessed as body jerks at 50 mg/kg, po administered every other day for 14 days; format: organism-based; conditions: in vivo, 336 h, time 14 day

## CN(C(=O)[C@H](Cc1cc(F)cc(F)c1)NC(=O)Cc1c[nH]c2ccc(O)cc12)c1ccc2scnc2c1
[1]
  Activity: Active
[2]
  Activity: Active
[3]
  MRT last at 24 h: 3.04 h
[4]
  selectivity ratio: 1360
[5]
  Activity: Non-toxic
[6]
  Activity: Non-toxic
[7]
  Activity: Non-toxic
[8]
  Activity: Active
[9]
  Activity: Non-toxic
[10]
  half-life: 0.198 h
[11]
  AUC(0-t) at 24 h: 5.53 ng·h/mL
[12]
  CL: 282.751 L/h/kg
[13]
  MRT inf: 5.85 h
[14]
  Activity: Non-toxic
[15]
  Activity: Non-toxic
[16]
  half-life at 1 µM: 1.52 h
[17]
  AUC(0-inf): 7.77 ng·h/mL
[18]
  Tmax: 1.33 h
[19]
  Activity: Non-toxic
[20]
  MRT last at 24 h: 7.74 min
[21]
  Activity: Non-toxic
[22]
  C0 at 24 h: 33.7 ng/mL
[23]
  Activity: Non-toxic
[24]
  Tmax: 4.98 min
[25]
  bioavailability: 84.2%
[26]
  pEC50: 8.57
[27]
  Cmax: 4.99 ng/mL
[28]
  Activity: Active
[29]
  Cmax: 18.8 ng/mL
[30]
  Activity: Non-toxic
[31]
  Activity: Non-toxic
[32]
  AUC(0-t) at 24 h: 23.3 ng·h/mL
[33]
  Activity: Non-toxic
[34]
  AUC(0-inf): 33.6 ng·h/mL
[35]
  MRT inf: 0.201 h
[36]
  Activity: Non-toxic
[37]
  Activity: Non-toxic
[38]
  half-life: 3.66 h
[39]
  Activity: Non-toxic
[40]
  pKd: 7.09
[41]
  Vd: 72.9 L/kg
[42]
  Activity: Non-toxic
[43]
  Activity: Non-toxic
